Results published in PubChem BioAssay (NCI).
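96-well plates; 48 h exposure; 5 concentrations. Endpoints by linear interpolation between flanking doses. Not reached: highest tested concentration assigned. The concentration for full growth arrest is given as TGI.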

Tests used:
Experiment in all cases: NCI anticancer screen, dose series, 48 h
[1] = tested on: UACC-257 melanoma
[2] = tested on: RXF 393 renal
[3] = tested on: OVCAR-5 ovarian
[4] = tested on: ACHN renal
[5] = tested on: MDA-MB-435
[6] = tested on: A498 renal
[7] = tested on: HCT-116 colon
[8] = tested on: SK-MEL-5 melanoma
[9] = tested on: SNB-75 CNS
[10] = tested on: MDA-N
[11] = tested on: MCF7 breast
[12] = tested on: SK-OV-3 ovarian
[13] = tested on: SF-268 CNS
[14] = tested on: NCI-H23 lung
[15] = tested on: LOX IMVI melanoma
[16] = tested on: HOP-92 NSCLC
[17] = tested on: SK-MEL-2 melanoma
[18] = tested on: CCRF-CEM leukemia
[19] = tested on: HL-60(TB) leukemia
[20] = tested on: BT-549 breast
[21] = tested on: HT29 colon
[22] = tested on: 786-0 renal
[23] = tested on: NCI/ADR-RES ovarian
[24] = tested on: EKVX NSCLC
[25] = tested on: RPMI-8226 leukemia
[26] = tested on: SK-MEL-28 melanoma
[27] = tested on: SN12C renal
[28] = tested on: KM12 colon
[29] = tested on: NCI-H226 lung
[30] = tested on: U251 CNS
[31] = tested on: SW-620 colon
[32] = tested on: OVCAR-4 ovarian
[33] = tested on: SF-295 CNS
[34] = tested on: MDA-MB-231 breast
[35] = tested on: OVCAR-3 ovarian
[36] = tested on: UO-31 renal
[37] = tested on: K-562 leukemia
[38] = tested on: CAKI-1 renal
[39] = tested on: T-47D breast
[40] = tested on: HCT-15 colon
[41] = tested on: PC-3 prostate
[42] = tested on: M14 melanoma
[43] = tested on: MALME-3M melanoma
[44] = tested on: A549 NSCLC
[45] = tested on: OVCAR-8 ovarian
[46] = tested on: HOP-62 NSCLC
[47] = tested on: IGROV1 ovarian
[48] = tested on: NCI-H522 lung
[49] = tested on: HS 578T breast
[50] = tested on: SF-539 CNS
[51] = tested on: UACC-62 melanoma
[52] = tested on: TK-10 renal
[53] = tested on: NCI-H460 lung
[54] = tested on: HCC-2998 colon
[55] = tested on: SNB-19 CNS
[56] = tested on: DU-145 prostate
[57] = tested on: SR leukemia
[58] = tested on: MOLT-4 leukemia
[59] = tested on: COLO 205 colon

Measured: TGI

Cc1nc(C(N)=S)sc1C(=O)CC(=O)C(=O)Nc1ccc(Br)cc1
not listed: [54] | [55] | [56] | [57] | [58] | [59]
> 100 µM: all other assays above

CC(C)CNC1=NCC(C)S1 (configuration not stated)
not listed: [22] | [23] | [27] | [32] | [45]
> 100 µM: all other assays above
